Test results published in patent EP0072027A1, “Antiviral compounds” (THE WELLCOME FOUNDATION LIMITED, priority 1981, dated 1983).
Marks after values point to notes of the source that are not given here.

Legend:
[1] = test system: Equine rhinopneumonitis virus (EHV-1); assay: In vivo activity against equine rhinopneumonitis virus in hamsters (Example 14), intraperitoneal and oral; parameters: species or system Syrian weanling hamsters
Procedure: Male cream Syrian weanling hamsters, 40-50 g, 21-24 days old, were caged in groups of 5 and given water and food ad lib.
Equine rhinopneumonitis virus (EHV-1), hamster adapted Vaccine Strain 'Pneumabort' was used; the vaccine was diluted 10^-1 in tissue culture fluid and this stock stored in 1 ml aliquots in sealed glass vials at -70°C. On Day 0 hamsters to be infected received 0.2 ml stock vaccine virus, diluted further 2 x 10^-1 in phosphate buffered saline, subcutaneously in the left flank.
9-/(2-Hydroxy-l-hydroxymethylethoxy)methyl/guanine (hereinafter referred to as 759U) and acyclovir were made up as aqueous solutions in sterile distilled water in the concentrations specified below.
Intraperitoneal administration: from Day 0 to Day 4, inclusive, hamsters received 759U or acyclovir in divided twice daily doses in aqueous solution, the concentration of 759U varying as following, namely 5 mg/ml to give a dose rate of 100 or 50 mg/kg/day, 1.2 mg/ml for 20 mg/kg/day, […] for 4 mg/kg/day and 0.036 mg/ml for 2 mg/kg/day. Untreated control hamsters received an equivalent volume of sterile distilled water.
A stock solution of 759U was made in sterile distilled water at 0.304 mg/ml and then diluted in 3-fold steps to 0.101 and 0.034 mg/ml. Hamsters were given medicated drinking water for 5 days commencing 5 hours pre-infection. A control group was supplied with unmedicated water.
Acyclovir was dissolved in sterile distilled water at 2 mg/ml with the addition of a little sodium hydroxide and warming to 42°C to facilitate solution. Hamsters were given medicated drinking water, containing acyclovir at 2 mg/ml, for 5 days commencing 5 hours pre-infection. […] A control group supplied with unmedicated water was set up.

Herpes simplex type 1 = assay: In vitro plaque reduction in VERO cell cultures (Example 16); format: cell-based; conditions: for IC50: Human alphaherpesvirus 1, Vero, VERO cells
Procedure: 60mm plastic cell culture dishes were seeded with a VERO cell suspension (6 ml of 2 x 10^5 cells/ml) in VERO cell growth medium comprising 5% foetal calf serum, 10% Eagles minimal essential medium, 0.11% sodium bicarbonate,0.25% Crystamycin.
(50,000 units/ml sodium benzyl penicillin B.P. and 50 mg/ml streptomcyin sulphate B.P.). The dishes were gently shaken to ensure the complete dispersion of the cells and then the cultures were incubated at 37°C in an atmosphere of 5% CO2/air overnight to attain confluency. The growth medium was then replaced with 2 ml of virus (Herpes simplex type 1) inoculum in phosphate buffered saline (PBS). The virus concentration was such as to induce the formation of 200-400 plaques/plate. A period of 1 hour was allowed for virus absorption at 37°C in 5% COZair, after which time the plates were drained and overlay medium (8 ml) was added at 42 °C. The overlay medium consisted of 0.6% agarose, 2% foetal calf serum, 10% Eagle's minimal essential medium, 0.11% sodium bicarbonate and 0.25% Crystamycin.
Doubling dilutions in micromolarity of active compound were prepared in the overlay and replicate cultures were fed with the maintenance medium overlay containing a range of concentrations of the compound. Untreated virus control cultures and uninfected cultures were also prepared. The overlay was allowed to solidify at room temperature before the cultures were returned to the incubator at 37°C in 5% CO2/air for 4 days. The cultures were then fixed with 10% formalin in PBS for 30 minutes to 1 hour; the overlay was removed and the cells were stained with 0.05% w/v methyl violet in 20% methanol. The resultant plaques were counted and expressed as a percentage of the plaque count of the untreated virus control cultures. These values were then plotted against the log10 of the compound concentration and the IC50 values representing the amount of the compound required to reduce the plaque count by 50% was read from the resulting dose-response line.

[2] = test system: herpes simplex virus type 1; assay: Comparative in vivo activity against herpetic encephalitis in mice (Example 18); parameters: species or system CD.1 mice; conditions: for Mean reciprocal survival time: 100 mg/kg/dose twice daily for 4½ days, 300 LD50
Procedure: CD.1 mice weighing 16 - 20 gm were obtained from Charles River, Manston, Kent, U.K. The animals were housed in groups of approximately 10 and were given food and water ad lib.
The compounds namely acyclovir, 134U, 759U and 457U, were prepared as suspensions or solutions in sterile water at a concentration of 20 mg/ml prior to each experiment, and were stored at 4°C during the dosing period.
The ICI strain of herpes simplex virus type 1 was used for all experiments at a concentration of 300 LD50 (10^5 pfu)/ml). Dilutions from virus stocks ([…]) were prepared in PBS 'A'.
The test procedure is analoguous to that described in Example 13.
Three experiments were performed, in which three routes of compound administration were examined: i) subcutaneous, ii) oral and iii) intraperitoneal. […]

[3] = 50 mg/kg/day intraperitoneal, Day 2, 10 in group
[4] = 50 mg/kg/day intraperitoneal, Day 3, 10 in group
[5] = 50 mg/kg/day intraperitoneal, Day 4, 10 in group
[6] = 50 mg/kg/day intraperitoneal, Day 5, 10 in group
[7] = 50 mg/kg/day intraperitoneal, Day 6, 10 in group
[8] = 50 mg/kg/day intraperitoneal, Day 7, 10 in group
[9] = 100 mg/kg/day intraperitoneal, Day 2, 10 in group
[10] = 100 mg/kg/day intraperitoneal, Day 3, 10 in group
[11] = 100 mg/kg/day intraperitoneal, Day 4, 10 in group
[12] = 100 mg/kg/day intraperitoneal, Day 5, 10 in group
[13] = 100 mg/kg/day intraperitoneal, Day 6, 10 in group
[14] = 100 mg/kg/day intraperitoneal, Day 7, 10 in group
[15] = Experiment 1, plaque count reduced by 50%
[16] = Experiment 2, plaque count reduced by 50%
[17] = Experiment 3, plaque count reduced by 50%

Structure (SMILES): Nc1nc2c(ncn2COC(CO)CO)c(=O)[nH]1 [Example 759U, 9-[(2-hydroxy-1-hydroxymethylethoxy)methyl]guanine]
- Cumulative mortality ([1]; 2 mg/kg/day intraperitoneal, Day 2, 10 in group): 0
- Cumulative mortality ([1]; 2 mg/kg/day intraperitoneal, Day 3, 10 in group): 0
- Cumulative mortality ([1]; 2 mg/kg/day intraperitoneal, Day 4, 10 in group): 0
- Cumulative mortality ([1]; 2 mg/kg/day intraperitoneal, Day 5, 10 in group): 0
- Cumulative mortality ([1]; 2 mg/kg/day intraperitoneal, Day 6, 10 in group): 0
- Cumulative mortality ([1]; 2 mg/kg/day intraperitoneal, Day 7, 10 in group): 0
- control of virus-induced mortality ([1]; 2 mg/kg/day intraperitoneally): complete control
- Cumulative mortality ([1]; 3 mg/kg/day oral (drinking water), Day 2, 10 in group): 0
- Cumulative mortality ([1]; 3 mg/kg/day oral (drinking water), Day 3, 10 in group): 1
- Cumulative mortality ([1]; 3 mg/kg/day oral (drinking water), Day 4, 10 in group): 1
- Cumulative mortality ([1]; 3 mg/kg/day oral (drinking water), Day 5, 10 in group): 1
- Cumulative mortality ([1]; 3 mg/kg/day oral (drinking water), Day 6, 10 in group): 1
- Cumulative mortality ([1]; 3 mg/kg/day oral (drinking water), Day 7, 10 in group): 1
- Cumulative mortality ([1]; 4 mg/kg/day intraperitoneal, Day 2, 10 in group): 0
- Cumulative mortality ([1]; 4 mg/kg/day intraperitoneal, Day 3, 10 in group): 0
- Cumulative mortality ([1]; 4 mg/kg/day intraperitoneal, Day 4, 10 in group): 0
- Cumulative mortality ([1]; 4 mg/kg/day intraperitoneal, Day 5, 10 in group): 0
- Cumulative mortality ([1]; 4 mg/kg/day intraperitoneal, Day 6, 10 in group): 0
- Cumulative mortality ([1]; 4 mg/kg/day intraperitoneal, Day 7, 10 in group): 0
- Cumulative mortality ([1]; 13 mg/kg/day oral (drinking water), Day 2, 10 in group): 0
- Cumulative mortality ([1]; 13 mg/kg/day oral (drinking water), Day 3, 10 in group): 0
- Cumulative mortality ([1]; 13 mg/kg/day oral (drinking water), Day 4, 10 in group): 0
- Cumulative mortality ([1]; 13 mg/kg/day oral (drinking water), Day 5, 10 in group): 0
- Cumulative mortality ([1]; 13 mg/kg/day oral (drinking water), Day 6, 10 in group): 0
- Cumulative mortality ([1]; 13 mg/kg/day oral (drinking water), Day 7, 10 in group): 0
- Cumulative mortality ([1]; 20 mg/kg/day intraperitoneal, Day 2, 10 in group): 0
- Cumulative mortality ([1]; 20 mg/kg/day intraperitoneal, Day 3, 10 in group): 0
- Cumulative mortality ([1]; 20 mg/kg/day intraperitoneal, Day 4, 10 in group): 0
- Cumulative mortality ([1]; 20 mg/kg/day intraperitoneal, Day 5, 10 in group): 0
- Cumulative mortality ([1]; 20 mg/kg/day intraperitoneal, Day 6, 10 in group): 0
- Cumulative mortality ([1]; 20 mg/kg/day intraperitoneal, Day 7, 10 in group): 0
- Cumulative mortality ([1]; 39 mg/kg/day oral (drinking water), Day 2, 10 in group): 0
- Cumulative mortality ([1]; 39 mg/kg/day oral (drinking water), Day 3, 10 in group): 0
- Cumulative mortality ([1]; 39 mg/kg/day oral (drinking water), Day 4, 10 in group): 0
- Cumulative mortality ([1]; 39 mg/kg/day oral (drinking water), Day 5, 10 in group): 0
- Cumulative mortality ([1]; 39 mg/kg/day oral (drinking water), Day 6, 10 in group): 0
- Cumulative mortality ([1]; 39 mg/kg/day oral (drinking water), Day 7, 10 in group): 0
- Cumulative mortality [1, 3]: 0
- Cumulative mortality [1, 4]: 0
- Cumulative mortality [1, 5]: 0
- Cumulative mortality [1, 6]: 0
- Cumulative mortality [1, 7]: 0
- Cumulative mortality [1, 8]: 0
- Cumulative mortality [1, 9]: 0
- Cumulative mortality [1, 10]: 0
- Cumulative mortality [1, 11]: 0
- Cumulative mortality [1, 12]: 0
- Cumulative mortality [1, 13]: 0
- Cumulative mortality [1, 14]: 1*
- efficacy against EHV-1 ([1]; orally at 3 mg/kg/day): only limited mortality
- efficacy against EHV-1 ([1]; orally at 13 mg/kg/day): completely effective
- activity in vitro against Herpes simplex type I compared with acyclovir (Herpes simplex type 1): greater activity
- IC50 (Herpes simplex type 1; [15]): 90 nM
- IC50 (Herpes simplex type 1; [16]): 50 nM
- IC50 (Herpes simplex type 1; [17]): 36 nM
- IC50 (Herpes simplex type 1; Mean of Experiments 1-3): 59 nM
- Mean reciprocal survival time ([2]; Oral): 0.146
- antiviral effect compared with acyclovir and 134U ([2]; any of the three routes, difference highly significant): greatest antiviral effect
- Mean reciprocal survival time ([2]; i.p.): 0.093
- Mean reciprocal survival time ([2]; s.c.): 0.084

Structure (SMILES): Nc1nc2c(ncn2COCCO)c(=O)[nH]1 [acyclovir, 9-(2-hydroxyethoxymethyl) guanine, reference compound]
- Cumulative mortality [1, 3]: 0
- Cumulative mortality [1, 4]: 1
- Cumulative mortality [1, 5]: 2
- Cumulative mortality [1, 6]: 5
- Cumulative mortality [1, 7]: 6
- Cumulative mortality [1, 8]: 6
- Cumulative mortality [1, 9]: 0
- Cumulative mortality [1, 10]: 0
- Cumulative mortality [1, 11]: 1*
- Cumulative mortality [1, 12]: 2*
- Cumulative mortality [1, 13]: 2*
- Cumulative mortality [1, 14]: 3*
- Cumulative mortality ([1]; 100 mg/kg/day oral (drinking water 2 mg/ml), Day 2, 12 in group): 0
- Cumulative mortality ([1]; 100 mg/kg/day oral (drinking water 2 mg/ml), Day 3, 12 in group): 2
- Cumulative mortality ([1]; 100 mg/kg/day oral (drinking water 2 mg/ml), Day 4, 12 in group): 5
- Cumulative mortality ([1]; 100 mg/kg/day oral (drinking water 2 mg/ml), Day 5, 12 in group): 7
- Cumulative mortality ([1]; 100 mg/kg/day oral (drinking water 2 mg/ml), Day 6, 12 in group): 8
- efficacy against EHV-1 ([1]; orally at 100 mg/kg/day for 5 days): poor efficacy
- IC50 (Herpes simplex type 1; [15]): 170 nM
- IC50 (Herpes simplex type 1; [16]): 75 nM
- IC50 (Herpes simplex type 1; [17]): 110 nM
- IC50 (Herpes simplex type 1; Mean of Experiments 1-3): 118 nM
- Mean reciprocal survival time ([2]; Oral): 0.237
- Mean reciprocal survival time ([2]; i.p.): 0.236
- Mean reciprocal survival time ([2]; s.c.): 0.174
